Assay results taken from patent US4785001A, “Ergoline esters” (Farmitalia Carlo Erba S.p.A., priority 1986, dated 1988).

Key:
[1] = orientative acute toxicity (LD50), p.o. mice; settings: mouse, in vivo, po
[2] = electroencephalographic effects (EEG) in the rat; type: in vivo; settings: 20 mg/Kg p.o.
Method: Moreover, the compound prepared in Example 1 was tested at the dose of 20 mg/Kg p.o. in the rat and the electroencephalographic effects (EEG) were observed. […] See Buonamici, M., Young, G. A. and Khazon (1982), Neuropharmacology, 21 : 825-829.

In the case of `CO[C@]12C[C@@H](COC(=O)C3=CN(C)C=CC3)CN(C)[C@@H]1Cc1cn(C)c3cccc2c13` [Example 1, 10-Methoxy-,1,6-dimethyl-8β-(1-methyl-,1,4-dihydro-3-pyridyl-carbonyloxymethyl)-ergoline], the LD50 [1] is reported as > 800 mg/kg and the “electroencephalographic effects (EEG)” value [2] is reported as “increased and long-lasting modifications”.
